Data from patent publication US20220274980A1, “PHARMACOLOGICAL INHIBITORS OF THE ENL YEATS DOMAIN” (priority 2019, published 2022).
Like-named read-outs stand apart in the source and are kept apart here.

Key:
[1] = biological target: T1, ENL YEATS domain (association with H3K27cr) (Homo sapiens, UniProt Q03111); test: biochemical; settings: ENL (YEATS)-H3K27cr HTRF (IC50, μM)
T1 sequence (Q03111 1-148): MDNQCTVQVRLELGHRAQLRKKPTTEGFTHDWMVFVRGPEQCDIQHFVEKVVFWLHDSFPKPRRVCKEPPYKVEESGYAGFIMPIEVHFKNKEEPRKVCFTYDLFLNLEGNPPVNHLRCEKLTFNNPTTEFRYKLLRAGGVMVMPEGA
Procedure: (§1) Protein Production. Double stranded DNA fragments encoding the protein sequence of ENL YEATS(1-148) were synthesized (IDT DNA) for assembly-based cloning into a modified expression vector backbone derived from pET21a (Novagen). The protein was fused to a StrepII-SUMO and 6×His tag on the amino and carboxy terminus, respectively. Transformed BL21(DE3) cells (New England Biolabs) were grown at 37° C. in 2×YT growth medium to an OD600 of 0.6. Protein expression was induced at 25° C. with the addition of isopropyl-β-D-thiogalactopyranoside (IPTG) to a final concentration of 0.4 mM. The culture was harvested by centrifugation following a 20-hour incubation and subsequently purified by immobilized metal affinity chromatography. Cells were resuspended 50 mM Tris-HCl pH 8.0, 300 mM NaCl, 10% glycerol, 10 mM imidazole, 1 mM DTT containing Complete EDTA-free protease inhibitor (Roche) and lysed by two passes through a MicroFluidizer at 10,000 psi. The lysate was clarified by centrifugation at 16,000 rpm for 30 minutes at 4° C. The supernatant was passed over NiNTA agarose (QIAGEN) and the protein was eluted in 50 mM Tris-HCl pH 8.0, 300 mM NaCl, 10% glycerol, 250 mM imidazole, 1 mM DTT. Fractions containing the ENL YEATS(1-148) fusion protein were buffer exchanged into 100 mM Tris-HCl pH 8.0, 150 mM NaCl, 1 mM EDTA, 1 mM DTT using PD10 desalting columns (GE Life Sciences). Ulp1 protease was added to cleave the StrepII-SUMO fusion and the reaction mixture was incubated overnight at 4° C. The cleavage reaction mixture was loaded onto a StrepTrap column (GE Life Sciences) and ENL YEATS(1-148) was recovered in the flow through. BRD4 BD1 was purchased from Cayman (Cat. No. 11720).
(§2) Homogenous time-resolved FRET (HTRF) histone-binding assays. Both HTRF assays were performed by combining recombinant protein and synthetic histone peptide in assay buffer (25 mM HEPES pH 7, 20 mM NaCl, 0.2% Pluronic F-127, and 0.05% BSA) with 1 nM LanthaScreen Eu-anti-His Tag antibody (ThermoFisher, Cat. No, PV5597) and 8.9 nM SureLight allophycocyanin-streptavidin (Perkin Elmer, APC-SA, Cat. No. CR130-100). ENL YEATS was used at 5 nM and BRD4 BD1 was used at 10 nM. ENL assays were performed with H3(13-32)K27cr (13.3 and 100 nM, respectively), custom synthesized at ABclonal (N-terminal biotin, C-terminal amide); BRD4 BD1 assay was performed with 13.3 nM tetra-acetylated H4 (BioVision, Cat. No. 7144-01). Once all reagents were combined (with or without peptide), 10 μL was dispensed per well into black 384-well low-volume plates (Corning, Cat. No. 3821) and drug was added by pin tool transfer (Biomek FX). Assays were incubated for 2 or more hours before measurement of HTRF signal on a PHERAstar plate reader (BMG Labtech; simultaneous dual emission; excitation=337 nm, emission 1=665 nm, emission 2=620 nm). HTRF signal (ratio of emission 1 to emission 2) from vehicle-treated wells (maximum signal) and no-peptide-control wells (minimum signal) were used to calculate percent inhibition for drug-treated wells.

[2] = biological target: T2, BRD4 bromodomain 1 (BD1) (Homo sapiens, UniProt O60885); test: BRD4 (BD1)-H4 tetra-acetylated HTRF histone-binding assay
T2 construct: Selectivity against BRD4 bromodomain 1 (BD1), measured by HTRF; His; purchased Cayman 11720
Procedure: as §1, §2

[3] = biological target: T3, ENL(YEATS)-HiBiT (Homo sapiens, UniProt Q03111); settings: read-out: ENL YEATS CETSA (IC50); Table 2; OCI/AML-2 cells expressing ENL(YEATS)-HiBiT
T3 sequence (Q03111 1-138 limits assumed): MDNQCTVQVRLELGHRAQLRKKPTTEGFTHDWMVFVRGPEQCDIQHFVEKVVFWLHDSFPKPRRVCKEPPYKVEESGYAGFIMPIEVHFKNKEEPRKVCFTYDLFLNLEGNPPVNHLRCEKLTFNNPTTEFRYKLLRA
Procedure: (§3) Cellular thermal shift assay (CETSA). […] Cells were transferred to 384-well (20,000 cells per well in 20 μL) or 1,536-well (3,000 cells per well in 4 μL) plates and drug was transferred using a 100 nL pin tool for 384-well plates or acoustic transfer (Labcyte, Echo Liquid Handler) for 1,536-well plates. Luminescent detection of HiBiT was performed by combining an equal volume of Nano-Glo HiBiT Lytic Reagent (Promega, HiBiT Lytic Detection System, Cat. No. N3040) in each well. […] Briefly, cells were treated with drug, washed with PBS, heated to various temperatures in a thermocycler, cooled to room temperature, lysed by three rounds of freeze-thaw, and then clarified lystaes were subjected to immunoblot analysis.

[4] = biological target: T3, ENL(YEATS)-HiBiT; test: cell-based
Procedure: as §3

[5] = Half-life in mouse liver microsomes; assay type: in vitro ADME
[6] = read-out: t1/2 (min) mouse liver microsomes
[7] = without NADPH, read-out: t1/2 mouse (min liver microsomes (without NADPH))

IC50 ([1]; Table 1) [µM] | IC50 ([1]; Table 2) [µM] | IC50 ([2]; Table 1) [µM] | IC50 ([2]; Table 2) [µM] | IC50 [3] [µM] | IC50 [4] [µM] | half-life [5, 6] [min] | half-life [5, 7] [min] | SMILES
> 50 | > 50 | > 50 | > 50 | > 100 | > 100 |  |  | O=C(NC1CCC(O)CC1)c1ccc2nc(-c3ccccc3)cn2c1 (stereo not shown) [Compound 2]
3.5 | 3.5 | > 50 | > 50 | > 100 | > 100 |  |  | CC(C)NC(=O)c1ccc2nc(-c3cccc(OC(F)(F)F)c3)cn2c1 [Compound 3]
> 50 | > 50 | > 50 | > 50 | > 100 | > 100 |  |  | CC(C)NC(=O)c1ccc2nc(-c3ccccc3C(F)(F)F)cn2c1 [Compound 6]
> 50 | > 50 | > 50 | > 50 | > 100 | > 100 |  |  | CC(C)NC(=O)c1ccc2nc(-c3ccc(C(F)(F)F)cc3)cn2c1 [Compound 7]
> 50 | > 50 | > 50 | > 50 | > 100 | > 100 |  |  | CC(C)N(C)C(=O)c1ccc2nc(-c3ccccc3)cn2c1 [Compound 8]
> 50 | > 50 | > 50 | > 50 | > 100 | > 100 |  |  | COc1ccccc1-c1cn2cc(C(=O)NC(C)C)ccc2n1 [Compound 10]
> 50 | > 50 | > 50 | > 50 | > 100 | > 100 |  |  | O=C(NC1CCCCC1O)c1ccc2nc(-c3ccccc3)cn2c1 (stereo not shown) [Compound 11]
> 50 | > 50 | > 50 | > 50 | > 100 | > 100 |  |  | CC(C)NC(=O)c1ccc2nc(-c3ccccc3OC(F)(F)F)cn2c1 [Compound 12]
> 50 | > 50 | > 50 | > 50 | > 100 | > 100 |  |  | CCC(CC)NC(=O)c1ccc2nc(-c3ccccc3)cn2c1 [Compound 13]
> 50 | > 50 | > 50 | > 50 | > 100 | > 100 |  |  | CC(C)NC(=O)c1ccc2nc(-c3ccc(OC(F)(F)F)cc3)cn2c1 [Compound 19]
15 | 15 | > 50 | > 50 | > 100 | > 100 |  |  | CC(C)NC(=O)c1ccc2nc(-c3cccc(C(F)(F)F)c3)cn2c1 [Compound 21]
> 50 | > 50 | > 50 | > 50 | > 100 | > 100 |  |  | Cc1ccc(-c2cn3cc(C(=O)NC(C)C)ccc3n2)cc1C [Compound 25]
33 | 33 | > 50 | > 50 |  | 80 |  |  | Cc1ccccc1-c1cn2cc(C(=O)NC(C)C)ccc2n1 [Compound 26]
0.12 | 0.12 | > 50 | > 50 |  | 8.5 |  |  | CC(C)NC(=O)c1ccc2nc(-c3cccc(NS(=O)(=O)NCCc4c[nH]cn4)c3)cn2c1 [Compound 46]
> 50 | > 50 |  |  | > 50 | > 50 |  |  | O=C(NC1(CO)CCC1)c1ccc2nc(-c3ccccc3)cn2c1 [Compound 72]
> 50 | > 50 |  |  | > 50 | > 50 |  |  | CC1(NC(=O)c2ccc3nc(-c4ccccc4)cn3c2)CCC1 [Compound 73]

IC50 ([1]; Table 1) [µM] | IC50 ([1]; Table 2) [µM] | IC50 ([2]; Table 1) [µM] | IC50 ([2]; Table 2) [µM] | IC50 [3] [µM] | IC50 [4] [µM] | half-life [5, 6] [min] | half-life [5, 7] [min] | SMILES
> 50 | > 50 |  |  | > 50 | > 50 |  |  | O=C(NC1CC(F)(F)C1)c1ccc2nc(-c3ccccc3)cn2c1 [Compound 75]
> 50 | > 50 |  |  | > 50 | > 50 |  |  | O=C(NC1Cc2ccccc2C1)c1ccc2nc(-c3ccccc3)cn2c1 [Compound 77]
> 50 | > 50 |  |  | > 50 | > 50 |  |  | O=C(N[C@H]1CCc2ccccc21)c1ccc2nc(-c3ccccc3)cn2c1 [Compound 79]
3.03 | 3.03 |  |  | > 50 | > 50 |  |  | O=C(NC1Cc2ccccc21)c1ccc2nc(-c3ccccc3)cn2c1 (stereo not shown) [Compound 80]
> 50 | > 50 |  |  | > 50 | > 50 |  |  | CN(C(=O)c1ccc2nc(-c3ccccc3)cn2c1)C1CCC1 [Compound 81]
> 50 | > 50 |  |  | > 50 | > 50 |  |  | N#CC1(NC(=O)c2ccc3nc(-c4ccccc4)cn3c2)CCC1 [Compound 82]
> 50 | > 50 |  |  | > 50 | > 50 |  |  | O=C(NC1(c2ccccc2)CCC1)c1ccc2nc(-c3ccccc3)cn2c1 [Compound 83]
> 50 | > 50 |  |  | > 50 | > 50 |  |  | O=C(NC1C2CC1C2)c1ccc2nc(-c3ccccc3)cn2c1 (stereo not shown) [Compound 84]
4.6 | 4.6 |  |  | > 50 | > 50 |  |  | CC1CC(NC(=O)c2ccc3nc(-c4ccccc4)cn3c2)C1 (stereo not shown) [Compound 87]
0.197 | 0.197 |  |  |  | 1.52 | 5.23 | 774 | COC1CCN(CCNS(=O)(=O)Nc2cccc(-c3cn4cc(C(=O)NC5CCC5)ccc4n3)c2)CC1 [Compound 94]
0.21 | 0.21 |  |  |  | 1.05 | 6.07 | 504 | O=C(NC1CCC1)c1ccc2nc(-c3cccc(NS(=O)(=O)NCCN4CCCCC4=O)c3)cn2c1 [Compound 95]
0.029 | 0.029 |  |  |  | 0.238 | 4.04 | 463 | CC1CCN(CCNS(=O)(=O)Nc2cccc(-c3cn4cc(C(=O)NC5CCC5)ccc4n3)c2)CC1 [Compound 100]
> 50 | > 50 |  |  | > 50 | > 50 |  |  | O=C(N[C@@H]1CC[C@@H]1c1ccccc1)c1ccc2nc(-c3ccccc3)cn2c1 [Compound 115]
> 50 | > 50 |  |  | > 50 | > 50 |  |  | CC(C)C1CC(NC(=O)c2ccc3nc(-c4ccccc4)cn3c2)C1 (stereo not shown) [Compound 119]
> 50 | > 50 |  |  | > 50 | > 50 |  |  | CC(C)(C)C1CC(NC(=O)c2ccc3nc(-c4ccccc4)cn3c2)C1 (stereo not shown) [Compound 120]
> 50 | > 50 |  |  | > 50 | > 50 |  |  | Cc1ccc(C2CCC2NC(=O)c2ccc3nc(-c4ccccc4)cn3c2)c(C)c1 (stereo not shown) [Compound 123]
